This assay concerns HUVECs treated with TNF-α/IL-1β. Description: Rescue of TNF-α/IL-1β-induced EndMT in HUVECs. Format: cell-based, human. The conditions noted are these: 10 μM, HUVECs with TNF-α/IL-1β 6 days. As for the experimental part:
Human umbilical vein ECs (HUVECs; Lonza) were grown in EGM-2 (comprising EBM-2 with growth factors and other supplements) with 2% Foetal Bovine Serum. Confluent HUVECs were treated with 10 ng/ml TNF-α, IL-1β, TGFβ2 (PeproTech); medium and cytokines were changed every two days. SB431542 (Tocris) has been used at the dose of 10 μM. HEK293T cells (ATCC®, CRL-11268) were cultured in D-MEM with 10% FBS (Life Technologies).
Total RNA was extracted using miReasy kit (Qiagen). Real-time quantification to measure miRNAs was performed with the TaqMan miRNA reverse transcription kit and miRNA assay (Life Technology) using Lightcycler 480 (Roche). miRNAs expression was normalized to the U6 […] (snRU6). For mRNA analysis, cDNA was amplified by quantitative real-time PCR (qPCR) and normalized to 18S ribosomal RNA. Each reaction was performed in triplicate. Quantification was performed by the 2^−ΔΔCt method^52. qPCR was used to measure the expression of miR-148b (miR-148b-3p Thermo Fisher Scientific, Cat. #4426961), snRU6 (ThermoFisher Scientific, Cat. #4331182), TGFβ2, SMAD2, CD31, VE-Cadherin, COL1A1, α-SMA, SLUG, VIM, SNAIL, TWIST, ZEB1/2 and 18S rRNA. Primers are pre-designed from Sigma (KiCgStart™ Primers).
Lipofectamine RNAiMAX (Thermo Fisher Scientific) was used to transfect HUVECs with miR-148b mimic, anti-miR-148b and mimic or anti-miR control (25 nM and […], respectively final concentration) or with siRNA targeting SMAD2 (20 nM final concentration), according to the manufacturer's instructions. jetPEI-HUVECs (Polyplus) was used to transfect HUVECs with DNA plasmids. The following functional assays were performed: BrdU incorporation assay using Cell Proliferation colorimetric assay (Roche); Matrigel assay with HUVECs was performed as previously described using BD Matrigel Basement Membrane Matrix (BD Biosciences)^53.
Proteins were extracted from cultured cells or muscles by using ice-cold buffer A (50 mM Hepes, 150 mM NaCl, 1 mM EDTA, 1 mM EGTA, 25 mM NaF, 5 mM NaPPi, 1%Triton, 1% NP40, 1 mM Na3VO4, 0.25% sodium deoxycholate, 0.5 mM Na-orthovanadate, 1 mM benzamidine, 0.1 mM phenylmethylsulfonyl fluoride). Protein concentration was determined using the Bio-Rad Protein Assay Reagent (Bio-Rad Laboratories, UK). Detection of proteins by Western blot analyses was done following separation of whole cell extracts (20 μg) on SDS-polyacrylamide gels. Proteins were transferred to nitrocellulose membranes and probed with the following antibodies: TGFβ2 (Abcam, ab36495, 1:1000), SMAD2 (SantaCruz Biotechnology, Santa Cruz, Calif., USA; #3102, 1:1000), p-SMAD2 (465/467) (Cell Signaling; #3108, 1:1000); CD31 (Abcam., 1:1000), VE-Cadherin (Abcam, ab33168, 1:1000), COL1A1 (Abcam, ab138492, 1:200), FSP-1 (5100A4; Abcam, ab41532, 1:1000), SLUG (Abcam, ab27568, 1:1000), β-actin (Abcam, ab16039, 1:4000), HDAC3 (GeneTex GTX113303, 1:1000) and GAPDH (GeneTex, GT239, 1:1000) (both used as loading control). For detection, the inventors used secondary antibodies conjugated to horseradish peroxidase which were rabbit anti-mouse (Abcam, ab97046, 1:5000) and goat anti-rabbit (Abcam, ab6721, 1:10000). Detection was developed by chemiluminescence reaction (ECL) (Immunoblot, Millipore, 23225).
Cells were fixed using 4% paraformaldehyde in PBS at room temperature for 15 min. For intracellular staining, fixed cells were permeabilized using 0.5% Triton X-100 in PBS (Sigma-Aldrich) or 0.1% Saponin in PBS at room temperature for 10 min. The blocking of […] antibody activity was performed using 3% bovine serum albumin (BSA) in PBS for 1 hour. Samples were incubated with antibodies to CD31 (Abcam, ab28364, 1:50), VE-cadherin (Abcam, ab33168, 1:100), FSP-1 (Abcam, ab41532, 1:200) and COL1A1 (Abcam, ab138492, 1:100) in PBS containing 1% BSA at 4° C. overnight. […]

Take `NC(=O)c1ccc(-c2nc(-c3ccc4c(c3)OCO4)c(-c3ccccn3)[nH]2)cc1` [SB431542, reference compound]: the “endothelial markers (CD31, VE-Cadherin) expression” value is listed as “did not rescue” and the “level of SMAD2 phosphorylation” value is “reduced”. In addition, under “listed as SB43152”, the “endothelial markers (CD31, VE-Cadherin) expression” value is “did not restore”.

The record behind these values is patent US20220193111A1, “Method of Treatment” (The University Court of the University of Edinburgh, priority 2018, published 2022).
